The source of these data is patent publication US9926282B2, “Phthalazinones and isoquinolinones as rock inhibitors” (BRISTOL-MYERS SQUIBB COMPANY, priority 2013, dated 2018).

In assay [1] the target is ROCK2 (Homo sapiens (Human), UniProt O75116). Description: ROCK assay (LABCHIP peptide phosphorylation), ROCK2. To be noted: 5 μM ATP, 1.5 μM peptide substrate. Type of assay: biochemical.
For assay [2], the target named is ROCK1 (Homo sapiens (Human), UniProt Q13464). Description: ROCK assay (LABCHIP peptide phosphorylation), ROCK1. Type of assay: biochemical. To be noted: 5 μM ATP, 1.5 μM peptide substrate; read-out: ROCK1 IC50.

SMILES strings stand for the structures. Counter-ions that a name gives are not always drawn.

Sequence of ROCK2 (O75116 whole entry, species assumed): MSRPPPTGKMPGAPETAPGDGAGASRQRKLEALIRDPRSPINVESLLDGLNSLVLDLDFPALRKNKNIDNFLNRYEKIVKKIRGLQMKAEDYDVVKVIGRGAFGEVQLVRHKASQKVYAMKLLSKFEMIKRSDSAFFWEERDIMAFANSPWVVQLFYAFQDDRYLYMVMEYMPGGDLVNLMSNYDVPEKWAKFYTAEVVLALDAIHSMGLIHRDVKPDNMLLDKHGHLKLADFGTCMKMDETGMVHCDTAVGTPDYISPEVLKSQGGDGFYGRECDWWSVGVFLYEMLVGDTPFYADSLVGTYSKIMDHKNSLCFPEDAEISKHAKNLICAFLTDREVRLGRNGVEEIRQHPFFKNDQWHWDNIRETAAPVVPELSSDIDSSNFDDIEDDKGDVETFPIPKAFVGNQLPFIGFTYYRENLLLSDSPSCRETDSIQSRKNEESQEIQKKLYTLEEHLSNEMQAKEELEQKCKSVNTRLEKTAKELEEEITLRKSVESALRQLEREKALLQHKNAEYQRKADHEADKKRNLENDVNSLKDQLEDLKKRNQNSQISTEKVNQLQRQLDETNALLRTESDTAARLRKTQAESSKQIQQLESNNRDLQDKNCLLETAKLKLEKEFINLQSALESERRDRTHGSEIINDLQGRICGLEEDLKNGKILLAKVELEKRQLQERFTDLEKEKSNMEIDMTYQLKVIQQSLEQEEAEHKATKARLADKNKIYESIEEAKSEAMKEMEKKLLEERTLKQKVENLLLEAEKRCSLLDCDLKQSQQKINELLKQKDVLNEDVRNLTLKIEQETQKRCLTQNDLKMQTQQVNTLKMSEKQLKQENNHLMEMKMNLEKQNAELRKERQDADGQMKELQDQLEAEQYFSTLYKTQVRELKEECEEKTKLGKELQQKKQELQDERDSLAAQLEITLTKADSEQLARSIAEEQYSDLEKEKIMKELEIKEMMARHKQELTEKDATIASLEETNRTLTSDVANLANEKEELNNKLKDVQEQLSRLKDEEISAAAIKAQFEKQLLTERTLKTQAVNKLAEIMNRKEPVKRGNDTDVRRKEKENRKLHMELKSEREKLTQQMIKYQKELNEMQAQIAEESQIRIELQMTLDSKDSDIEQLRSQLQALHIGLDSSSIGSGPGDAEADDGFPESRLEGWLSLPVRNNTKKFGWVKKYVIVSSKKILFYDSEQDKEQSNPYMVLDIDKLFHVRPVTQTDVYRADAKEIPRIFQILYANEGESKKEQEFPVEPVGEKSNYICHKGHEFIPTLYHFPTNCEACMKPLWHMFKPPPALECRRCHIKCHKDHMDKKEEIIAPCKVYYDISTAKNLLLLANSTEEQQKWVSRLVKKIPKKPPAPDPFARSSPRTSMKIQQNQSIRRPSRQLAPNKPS
Sequence of ROCK1 (Q13464 whole entry, species assumed): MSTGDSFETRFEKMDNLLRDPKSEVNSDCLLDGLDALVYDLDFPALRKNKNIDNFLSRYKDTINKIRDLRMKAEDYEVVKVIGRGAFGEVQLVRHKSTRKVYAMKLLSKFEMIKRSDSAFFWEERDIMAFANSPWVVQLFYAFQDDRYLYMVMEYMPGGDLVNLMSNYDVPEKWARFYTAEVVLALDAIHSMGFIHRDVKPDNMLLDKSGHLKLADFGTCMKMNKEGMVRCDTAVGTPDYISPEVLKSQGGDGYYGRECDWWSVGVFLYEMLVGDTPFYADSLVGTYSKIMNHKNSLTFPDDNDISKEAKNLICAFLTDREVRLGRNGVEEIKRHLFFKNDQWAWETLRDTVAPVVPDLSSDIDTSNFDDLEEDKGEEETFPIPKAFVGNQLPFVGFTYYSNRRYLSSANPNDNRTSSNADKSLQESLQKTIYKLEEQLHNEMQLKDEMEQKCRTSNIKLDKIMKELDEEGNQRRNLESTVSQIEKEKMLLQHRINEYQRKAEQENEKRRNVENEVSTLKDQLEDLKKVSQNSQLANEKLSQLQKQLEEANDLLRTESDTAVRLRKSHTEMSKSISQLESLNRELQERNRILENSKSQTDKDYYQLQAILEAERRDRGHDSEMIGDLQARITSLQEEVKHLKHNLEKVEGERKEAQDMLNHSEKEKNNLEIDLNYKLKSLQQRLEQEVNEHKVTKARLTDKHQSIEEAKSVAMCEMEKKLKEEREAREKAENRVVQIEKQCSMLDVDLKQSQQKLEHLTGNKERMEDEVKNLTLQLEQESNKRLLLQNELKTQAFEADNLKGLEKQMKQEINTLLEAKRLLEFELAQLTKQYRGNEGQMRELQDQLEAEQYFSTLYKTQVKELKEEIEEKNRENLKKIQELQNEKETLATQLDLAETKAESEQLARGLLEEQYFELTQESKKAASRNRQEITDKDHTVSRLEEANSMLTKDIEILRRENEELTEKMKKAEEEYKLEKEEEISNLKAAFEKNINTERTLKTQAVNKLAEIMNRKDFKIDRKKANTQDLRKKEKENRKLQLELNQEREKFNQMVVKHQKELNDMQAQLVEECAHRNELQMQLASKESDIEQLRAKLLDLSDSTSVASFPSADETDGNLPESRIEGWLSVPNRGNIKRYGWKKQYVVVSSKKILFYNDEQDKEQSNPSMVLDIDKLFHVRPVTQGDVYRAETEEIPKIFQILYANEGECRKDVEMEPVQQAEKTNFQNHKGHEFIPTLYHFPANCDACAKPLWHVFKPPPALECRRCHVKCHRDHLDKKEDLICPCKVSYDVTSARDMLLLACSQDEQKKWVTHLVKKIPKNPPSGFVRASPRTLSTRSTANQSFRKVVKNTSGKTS

In the case of `O=C(Cc1ccc(-c2n[nH]c(=O)c3ccccc23)cc1)Nc1cccnc1` [Example 5, 2-[4-(4-oxo-3,4-dihydrophthalazin-1-yl)phenyl]-N-(pyridin-3-yl)acetamide], in assay [1], the IC50 (as a rule, the concentration needed to halve the response being measured) was in the range of 101 to 1000 nM.

For the compound `CN(C)c1ccc(C(=O)Nc2ccc3c(c2)N(C(=O)Cc2ccc(-c4n[nH]c(=O)c5ccccc45)cc2)CC3)cc1` [Example 300, 4-(Dimethylamino)-N-(1-(2-(4-(4-oxo-3,4-dihydrophthalazin-1-yl)phenyl)acetyl)indolin-6-yl)benzamide], the IC50 in assay [1] and in assay [2] was 0.1 to 100 nM throughout.

Take `COc1ccccc1N1CCC(C(=O)Nc2ccc(-c3n[nH]c(=O)c4ccccc34)cc2)C1=O` (centres unmarked) [Example 216, 1-(2-methoxyphenyl)-2-oxo-N-[4-(4-oxo-3,4-dihydrophthalazin-1-yl)phenyl]pyrrolidine-3-carboxamide]: the figures for the 50% inhibitory concentration (IC50) in assay [1] and in assay [2] were 101 to 1000 nM and 1000 to 50000 nM, respectively.

In the case of `CC(C)=Cn1nc(C(=O)Nc2ccc(-c3n[nH]c(=O)c4ccccc34)cc2)c2cc(F)ccc21` [Example 178, 5-fluoro-1-(2-methylprop-1-en-1-yl)-N-[4-(4-oxo-3,4-dihydrophthalazin-1-yl)phenyl]-1H-indazole-3-carboxamide], the results for the half-inhibitory concentration (IC50) in assay [1] and in assay [2] were 0.1 to 100 nM and 101 to 1000 nM, respectively.

Consider `Cc1cccc(N2CCC(C(=O)Nc3ccc(-c4n[nH]c(=O)c5ccccc45)cc3)C2=O)c1` (centres unmarked) [Example 209, 1-(3-methylphenyl)-2-oxo-N-[4-(4-oxo-3,4-dihydrophthalazin-1-yl)phenyl]pyrrolidine-3-carboxamide], for which the concentration for half-maximal inhibition (IC50) in assay [1] and in assay [2] was 101 to 1000 nM each time.

On to `CN(C)C(=O)c1ccc2c(c1)N(C(=O)Cc1ccc(-c3n[nH]c(=O)c4ccccc34)cc1)CC2` [Example 291, N,N-dimethyl-1-{2-[4-(4-oxo-3,4-dihydrophthalazin-1-yl)phenyl]acetyl}-2,3-dihydro-1H-indole-6-carboxamide], for which the IC50 in assay [1] lay within 0.1 to 100 nM; in assay [2] it was 101 to 1000 nM.

As for `CC(=O)N1CCC(C(=O)Nc2ccc(-c3n[nH]c(=O)c4ccccc34)cc2)CC1` [Example 55, 1-acetyl-N-[4-(4-oxo-3,4-dihydrophthalazin-1-yl)phenyl]piperidine-4-carboxamide], the 50% inhibitory concentration (IC50) in assay [1] and in assay [2] was 1000 to 50000 nM in each case.

On to `Cc1onc(NC(=O)Cc2ccc(-c3n[nH]c(=O)c4ccccc34)cc2)c1C` [Example 280, N-(dimethyl-1,2-oxazol-3-yl)-2-[4-(4-oxo-3,4-dihydrophthalazin-1-yl)phenyl]acetamide], for which the figures for the IC50 in assay [1] and in assay [2] were 0.1 to 100 nM and 101 to 1000 nM, respectively.

On to `CN(C)CCOc1ccc2c(c1)N(C(=O)Cc1ccc(-c3n[nH]c(=O)c4ccccc34)cc1)CC2` [Example 279, 4-[4-(2-{6-[2-(dimethylamino)ethoxy]-2,3-dihydro-1H-indol-1-yl}-2-oxoethyl)phenyl]-1,2-dihydrophthalazin-1-one], for which the IC50 lay within 0.1 to 100 nM in assay [1] and 101 to 1000 nM in assay [2].

For `Cc1cc(C(=O)Nc2ccc(-c3n[nH]c(=O)c4ccccc34)cc2)nn1C(C)(C)C` [Example 235, 1-tert-butyl-5-methyl-N-[4-(4-oxo-3,4-dihydrophthalazin-1-yl)phenyl]-1H-pyrazole-3-carboxamide], the IC50 in assay [1] and in assay [2] was 0.1 to 100 nM each time.

As to `COc1ccc(-n2nnc(C)c2C(=O)Nc2ccc(-c3n[nH]c(=O)c4ccccc34)cc2)cc1` [Example 402, 1-(4-Methoxyphenyl)-4-methyl-N-(4-(4-oxo-3,4-dihydrophthalazin-1-yl)phenyl)-1H-1,2,3-triazole-5-carboxamide], the half-maximal inhibitory concentration (IC50) in assay [1] lay in the range of 0.1 to 100 nM; in assay [2], 101 to 1000 nM.

`O=C(Nc1ccc(-c2n[nH]c(=O)c3ccccc23)cc1)c1n[nH]c2c1C(=O)CCC2` [Example 109, 4-oxo-N-[4-(4-oxo-3,4-dihydrophthalazin-1-yl)phenyl]-4,5,6,7-tetrahydro-1H-indazole-3-carboxamide]: the IC50 in assay [1] and in assay [2] was 0.1 to 100 nM in each case.

Regarding `O=C(Nc1ccc(-c2n[nH]c(=O)c3ccccc23)cc1)c1c[nH]c2ccncc12` [Example 166, N-[4-(4-oxo-3,4-dihydrophthalazin-1-yl)phenyl]-1H-pyrrolo[3,2-c]pyridine-3-carboxamide], the IC50 in assay [1] was 0.1 to 100 nM; in assay [2], 101 to 1000 nM.

`O=C(Nc1ccc(-c2n[nH]c(=O)c3ccccc23)cc1)c1ccccc1` [Example 67, N-[4-(4-oxo-3,4-dihydrophthalazin-1-yl)phenyl]benzamide]: the concentration for half-maximal inhibition (IC50) in assay [1] was in the range of 0.1 to 100 nM; in assay [2], 101 to 1000 nM.

Take `Cc1c(C(=O)Nc2ccc(-c3n[nH]c(=O)c4ccccc34)cc2)nnn1-c1ccccc1` [Example 400, 5-Methyl-N-(4-(4-oxo-3,4-dihydrophthalazin-1-yl)phenyl)-1-phenyl-1H-1,2,3-triazole-4-carboxamide]: the IC50 in assay [1] and in assay [2] was 0.1 to 100 nM each time.

On to `CCn1c(C(=O)Nc2ccc(-c3n[nH]c(=O)c4ccccc34)cc2)cc2ccccc21` [Example 107, 1-ethyl-N-[4-(4-oxo-3,4-dihydrophthalazin-1-yl)phenyl]-1H-indole-2-carboxamide], for which the half-maximal inhibitory concentration (IC50) in assay [1] and in assay [2] was 0.1 to 100 nM in each case.

As to `O=C(Nc1ccc(-c2n[nH]c(=O)c3ccccc23)cc1)c1nn(CC2CCN(C(=O)OCC(F)(F)F)CC2)c2ccccc12` [Example 351, 2,2,2-Trifluoroethyl 4-[(3-{[4-(4-oxo-3,4-dihydrophthalazin-1-yl)phenyl]carbamoyl}-1H-indazol-1-yl)methyl]piperidine-1-carboxylate], the IC50 in assay [1] and in assay [2] was 0.1 to 100 nM throughout.

`O=C(Cc1ccc(-c2n[nH]c(=O)c3ccccc23)cc1)N[C@H]1CCc2ccccc21` [Example 82, (S)—N-(2,3-Dihydro-1H-inden-1-yl)-2-(4-(4-oxo-3,4-dihydrophthalazin-1-yl)phenyl)acetamide]: the 50% inhibitory concentration (IC50) in assay [1] lay within 101 to 1000 nM; in assay [2], 1000 to 50000 nM.

On to `CCCc1cc(C(=O)Nc2ccc(-c3n[nH]c(=O)c4ccccc34)cc2)nn1C` [Example 229, 1-methyl-N-[4-(4-oxo-3,4-dihydrophthalazin-1-yl)phenyl]-5-propyl-1H-pyrazole-3-carboxamide], for which the half-maximal inhibitory concentration (IC50) in assay [1] and in assay [2] was 0.1 to 100 nM throughout.

Regarding `O=C(Nc1ccc(-c2n[nH]c(=O)c3ccccc23)c(CO)c1)c1cnn2ccccc12` [Example 362, N-(3-(Hydroxymethyl)-4-(4-oxo-3,4-dihydrophthalazin-1-yl)phenyl)pyrazolo[1,5-a]pyridine-3-carboxamide], the IC50 was 0.1 to 100 nM in assay [1] and 1000 to 50000 nM in assay [2].

On to `Cc1cc(NC(=O)c2cnn(-c3ccccc3)c2C)ccc1-c1n[nH]c(=O)c2ccccc12` [Example 394, 5-Methyl-N-(3-methyl-4-(4-oxo-3,4-dihydrophthalazin-1-yl)phenyl)-1-phenyl-1H-pyrazole-4-carboxamide], for which the IC50 lay in the range of 0.1 to 100 nM in assay [1] and 101 to 1000 nM in assay [2].

For `O=C(Nc1ccc(-c2n[nH]c(=O)c3ccccc23)cc1)c1cnn(-c2ccccc2Cl)c1` [Example 220, 1-(2-chlorophenyl)-N-[4-(4-oxo-3,4-dihydrophthalazin-1-yl)phenyl]-1H-pyrazole-4-carboxamide], the half-maximal inhibitory concentration (IC50) in assay [1] and in assay [2] was 0.1 to 100 nM each time.

In assay [1], `O=C(Cc1ccc(-c2n[nH]c(=O)c3ccccc23)cc1)N1Cc2ccccc2C1` [Example 1, 4-(4-(2-(Isoindolin-2-yl)-2-oxoethyl)phenyl)phthalazin-1(2H)-one] displayed an IC50 of 0.1 to 100 nM.

In turn, `O=C(Nc1ccc(-c2n[nH]c(=O)c3ccccc23)cc1)c1csc(-c2cc(F)cc(F)c2)n1` [Example 49, 2-(3,5-difluorophenyl)-N-[4-(4-oxo-3,4-dihydrophthalazin-1-yl)phenyl]-1,3-thiazole-4-carboxamide] showed an IC50 in assay [1] of 0.1 to 100 nM.

Consider `O=C(Cc1ccc(-c2n[nH]c(=O)c3ccccc23)cc1)Nc1ccncc1` [Example 7, 2-[4-(4-oxo-3,4-dihydrophthalazin-1-yl)phenyl]-N-(pyridin-4-yl)acetamide], for which the 50% inhibitory concentration (IC50) in assay [1] was in the range of 0.1 to 100 nM.

Take `O=C(Nc1ccc(-c2n[nH]c(=O)c3ccccc23)cc1)c1csc(-c2ccncc2)n1` [Example 45, N-(4-(4-Oxo-3,4-dihydrophthalazin-1-yl)phenyl)-2-(pyridin-4-yl)thiazole-4-carboxamide]: the 50% inhibitory concentration (IC50) in assay [1] lay within 0.1 to 100 nM.

As to `CN(Cc1ccccc1)C(=O)Cc1ccc(-c2n[nH]c(=O)c3ccccc23)cc1` [Example 8, N-benzyl-N-methyl-2-[4-(4-oxo-3,4-dihydrophthalazin-1-yl)phenyl]acetamide], the concentration for half-maximal inhibition (IC50) in assay [1] was in the range of 1000 to 50000 nM.

As to `O=C(Oc1ccc(-c2n[nH]c(=O)c3ccccc23)cc1)N1Cc2ccccc2C1` [Example 68, 4-(4-Oxo-3,4-dihydrophthalazin-1-yl)phenyl isoindoline-2-carboxylate], the concentration for half-maximal inhibition (IC50) in assay [1] lay within 0.1 to 100 nM.

With `O=C(Cc1ccc(-c2n[nH]c(=O)c3ccccc23)cc1)N1CCc2ccccc2C1` [Example 4, 4-{4-[2-oxo-2-(1,2,3,4-tetrahydroisoquinolin-2-yl)ethyl]phenyl}-1,2-dihydrophthalazin-1-one], the IC50 in assay [1] is 101 to 1000 nM.

As for `O=C(Cc1ccc(-c2n[nH]c(=O)c3ccccc23)cc1)NCc1ccccc1` [Example 6, N-benzyl-2-[4-(4-oxo-3,4-dihydrophthalazin-1-yl)phenyl]acetamide], the concentration for half-maximal inhibition (IC50) in assay [1] lay in the range of 101 to 1000 nM.

For the compound `O=C(Nc1ccc(-c2n[nH]c(=O)c3ccccc23)cc1)c1cnn(C2CCS(=O)(=O)C2)c1` (centres unmarked) [Example 396, 1-(1,1-Dioxidotetrahydrothiophen-3-yl)-N-(4-(4-oxo-3,4-dihydrophthalazin-1-yl)phenyl)-1H-pyrazole-4-carboxamide, TFA], in assay [2], the IC50 fell in the range of 101 to 1000 nM.

Regarding `O=C(Nc1ccc(-c2n[nH]c(=O)c3ccccc23)cc1)c1cn2ccnc(Cl)c2n1` [Example 124, 8-chloro-N-[4-(4-oxo-3,4-dihydrophthalazin-1-yl)phenyl]imidazo[1,2-a]pyrazine-2-carboxamide], in assay [2], the IC50 lay within 101 to 1000 nM.
